Reference: publication PMC6858373 (Scientific Reports, 2019)
Structures can show the parent of a compound that is named as a salt. Where two headings read alike, the source gives them in different places.

Assays:
[1] = molecular target: T1, FGF14:Nav1.6 C-tail complex (Homo sapiens, UniProt Q92915+Q9UQD0); assay: Split-luciferase complementation assay (LCA) in Clone V double stable HEK293 cells; assay type: cell-based; conditions: for Split Luciferase Assay Z-score Set 1 / Split Luciferase Assay Z-score Set 2: normalized to on-plate 0.3% DMSO controls
T1 construct: polymerase chain reaction (PCR) amplification of the FGF14 open reading frame (nt 1–855); C-terminal fragment of Nav1.6 (amino acids 1763–1976) fused with CD4ΔC-tail (amino acids 1–395); expressed in transfected cells
T1 sequence (Q92915 1-252 isoform Q92915-2): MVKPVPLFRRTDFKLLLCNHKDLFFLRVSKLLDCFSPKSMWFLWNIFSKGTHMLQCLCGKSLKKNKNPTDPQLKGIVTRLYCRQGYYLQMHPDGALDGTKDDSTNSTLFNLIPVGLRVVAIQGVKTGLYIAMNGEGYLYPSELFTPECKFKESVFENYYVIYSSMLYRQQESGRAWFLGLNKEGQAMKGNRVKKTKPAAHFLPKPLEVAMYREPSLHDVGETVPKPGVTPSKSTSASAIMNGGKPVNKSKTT
T1 sequence (Q9UQD0 1763-1976 limits assumed): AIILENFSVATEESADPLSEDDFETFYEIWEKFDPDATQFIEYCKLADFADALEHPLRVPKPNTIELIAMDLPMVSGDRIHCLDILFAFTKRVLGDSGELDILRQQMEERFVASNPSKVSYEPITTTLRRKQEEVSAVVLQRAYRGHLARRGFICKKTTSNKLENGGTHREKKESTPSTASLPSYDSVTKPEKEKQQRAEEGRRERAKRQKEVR

[2] = molecular target: full-length P. pyralis luciferase (Photinus pyralis, UniProt P08659, K549A/L550V/N119G/N50D/S548I); assay type: cell-based; conditions: for Luciferase Assay % Lum: full-length luciferase counter-screen luminescence; for Luciferase Assay Z-score: full-length luciferase counter-screen
full-length P. pyralis luciferase, sequence (P08659 whole entry N50D/N119G/S548I/K549A/L550V, looked up): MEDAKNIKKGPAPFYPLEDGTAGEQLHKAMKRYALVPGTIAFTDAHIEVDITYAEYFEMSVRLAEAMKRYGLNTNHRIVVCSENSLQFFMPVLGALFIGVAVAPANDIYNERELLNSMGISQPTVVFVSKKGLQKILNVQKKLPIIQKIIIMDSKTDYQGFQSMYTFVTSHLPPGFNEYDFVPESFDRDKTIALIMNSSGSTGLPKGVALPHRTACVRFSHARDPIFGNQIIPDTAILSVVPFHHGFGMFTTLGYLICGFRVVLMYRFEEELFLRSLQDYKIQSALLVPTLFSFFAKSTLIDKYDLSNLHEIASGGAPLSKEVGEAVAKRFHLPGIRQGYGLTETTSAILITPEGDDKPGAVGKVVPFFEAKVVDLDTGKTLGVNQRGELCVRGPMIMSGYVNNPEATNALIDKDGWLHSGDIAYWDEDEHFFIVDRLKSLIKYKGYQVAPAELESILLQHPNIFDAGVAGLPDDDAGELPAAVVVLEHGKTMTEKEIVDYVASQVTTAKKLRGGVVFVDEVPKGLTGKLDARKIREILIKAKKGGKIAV

Clone V cells [3] = conditions: human
in vitro = conditions: human
Clone V cells [4] = assay: CellTiter Blue (CTB) cell viability counter-screen; conditions: CC_NCI screening; CTB cell viability fluorescence; normalized to on-plate 0.3% DMSO controls
[5] = CC_NCI screening, biological replicate Set 1
[6] = CC_NCI screening, biological replicate Set 1, normalized to on-plate 0.3% DMSO controls (n=16 per plate)
[7] = CC_NCI screening, biological replicate Set 2
[8] = CC_NCI screening, biological replicate Set 2, normalized to on-plate 0.3% DMSO controls (n=16 per plate)
[9] = average of Set 1 and Set 2, normalized to 0.3% DMSO controls
[10] = CC_NCI screening, normalized to on-plate 0.3% DMSO controls
[11] = CC_NCI screening, LCA luminescence, biological replicate Set 1, normalized to on-plate 0.3% DMSO controls (n=16 per plate)
[12] = CC_NCI screening, LCA luminescence, biological replicate Set 2, normalized to on-plate 0.3% DMSO controls (n=16 per plate)
[13] = CC_NCI screening, LCA, biological replicate Set 1
[14] = CC_NCI screening, LCA, biological replicate Set 2
[15] = CC_NCI screening, average of Set 1 and Set 2, normalized to 0.3% DMSO controls

Compound	Split Luciferase Assay Z-score Set 1 [1, 5]	Split Luciferase Assay % Lum Set 1 [1, 6]	Split Luciferase Assay Z-score Set 2 [1, 7]	Split Luciferase Assay %Lum Set 2 [1, 8]	Split Luciferase Assay %Lum Avg [1, 9]	Luciferase Assay % Lum (full-length luciferase counter-screen) [2, 10]	Luciferase Assay Z-score (full-length luciferase counter-screen) [2, 10]	Toxicity Assay Z-score (CTB cell viability) (Clone V cells [3]; 16 h, 30 µM)	Split Luciferase Assay % Lum Set 1 [1, 11]	Split Luciferase Assay %Lum Set 2 [1, 12]	Split Luciferase Assay Z-score Set 1 [1, 13]	Split Luciferase Assay Z-score Set 2 [1, 14]	Split Luciferase Assay %Lum Avg [1, 15]	Luciferase Assay % Lum [2, 10]	Luciferase Assay Z-score [2, 10]	Toxicity Assay Z-score (Clone V cells [3]; 16 h, 30 µM)	Toxicity Assay % Fluor (Clone V cells [4])	further results
NC(=O)Nc1cc(-c2cccc(F)c2)sc1C(=O)N[C@H]1CCCNC1 [AZD 7762]	-1.38	82.95%	-2.63	67.62%	75.28%	92.74%	-0.93	–	–	–	–	–	–	–	–	–	–	Toxicity Assay Z-score (CTB cell viability) (Clone V cells [3]): 0.35; viability (in vitro): 102%
CN(C)c1nc(N(C)C)nc(N(C)C)n1 [Altretamine]	-0.59	92.73%	1.85	122.76%	107.74%	–	–	0.43	–	–	–	–	–	–	–	–	–	Luciferase Assay % Lum (full-length luciferase counter-screen) [2]: 97.84%; Luciferase Assay Z-score (full-length luciferase counter-screen) [2]: -0.28; viability at 16 h, 30 µM (in vitro): 103%
NCC(=O)CCC(=O)O [Aminolevulinic acid hydrochloride]	-0.06	99.25%	0.75	109.23%	104.24%	100.02%	0.00	0.31	–	–	–	–	–	–	–	–	–	viability at 16 h, 30 µM (in vitro; Clone V cells): 102%
Nc1ncn([C@@H]2O[C@H](CO)[C@@H](O)[C@H]2O)c(=O)n1 [Azacitidine]	-0.32	95.99%	0.24	102.99%	99.49%	93.68%	-0.81	0.41	–	–	–	–	–	–	–	–	–	viability at 16 h, 30 µM (in vitro): 103%
O=C(NCCCNc1nc(Nc2cccc(NC(=O)N3CCCC3)c2)ncc1I)c1cccs1 [BX 795]	-4.28	47.07%	-5.85	28.09%	37.58%	70.68%	-3.76	0.47	–	–	–	–	–	–	–	–	–	viability at 16 h, 30 µM (in vitro): 103%
CS(=O)(=O)OCCCCOS(C)(=O)=O [Busulfan]	-0.50	93.82%	1.01	112.35%	103.09%	97.98%	-0.26	0.92	–	–	–	–	–	–	–	–	–	viability at 16 h, 30 µM (in vitro; Clone V cells): 107%
Cc1c[nH]c(-c2cnc(NCCNc3ccc(C#N)cn3)nc2-c2ccc(Cl)cc2Cl)n1 [CHIR 99021]	-4.98	38.37%	-5.60	31.21%	34.79%	70.15%	-3.82	1.07	–	–	–	–	–	–	–	–	–	viability at 16 h, 30 µM (in vitro): 108%
CCCCCOC(=O)Nc1nc(=O)n([C@@H]2O[C@H](C)[C@@H](O)[C@H]2O)cc1F [Capecitabine]	1.96	124.26%	1.17	114.43%	119.35%	100.06%	0.01	1.00	–	–	–	–	–	–	–	–	–	viability at 16 h, 30 µM (in vitro; Clone V cells): 107%
CC(C)C[C@H](NC(=O)[C@H](CCc1ccccc1)NC(=O)CN1CCOCC1)C(=O)N[C@@H](Cc1ccccc1)C(=O)N[C@@H](CC(C)C)C(=O)[C@@]1(C)CO1 [Carfilzomib]	-0.68	91.64%	-1.62	80.10%	85.87%	97.18%	-0.36	–	–	–	–	–	–	–	–	–	–	Toxicity Assay Z-score (CTB cell viability) (Clone V cells [3]): 1.05; viability (in vitro): 108%
O=NN(CCCl)C(=O)NCCCl [Carmustine]	0.55	–	0.24	–	–	102.90%	0.37	–	–	–	–	–	–	–	–	–	–	Split Luciferase Assay % Lum Set 1 [1]: 106.86%; Split Luciferase Assay %Lum Avg [1]: 104.93%; Split Luciferase Assay %Lum Set 2 [1]: 102.99%; Toxicity Assay Z-score (CTB cell viability) (Clone V cells [3]): 2.39; viability (in vitro): 117%
COc1c2occc2cc2ccc(=O)oc12 [Methoxsalen]	–	–	–	–	–	93.90%	-0.78	1.23	–	–	–	–	–	–	–	–	–	viability at 16 h, 30 µM (in vitro): 109%
Oc1ccc(-c2nc(-c3ccncc3)c(-c3ccc(F)cc3)[nH]2)cc1 [SB 202190]	–	–	–	–	–	–	–	–	101.43%	105.07%	0.12	0.41	103.25%	79.13%	-2.67	-0.55	96.10%	–
O=C1CCC(N2C(=O)c3ccccc3C2=O)C(=O)N1 (stereo not shown) [Thalidomide]	–	–	–	–	–	–	–	–	128.60%	108.19%	2.31	0.67	118.40%	100.85%	0.11	-1.74	87.53%	–
CC[C@@]1(O)C(=O)OCc2c1cc1n(c2=O)Cc2cc3c(CN(C)C)c(O)ccc3nc2-1 [Topotecan hydrochloride]	–	–	–	–	–	–	–	–	57.94%	58.26%	-3.40	-3.40	58.10%	88.71%	-1.45	-0.96	93.13%	–
CC1=C(/C=C/C(C)=C/C=C/C(C)=C/C(=O)O)C(C)(C)CCC1 [Tretinoin]	–	–	–	–	–	–	–	–	117.73%	106.11%	1.43	0.50	111.92%	80.43%	-2.51	-1.78	87.25%	–
Clc1ccc(Nc2nnc(Cc3ccncc3)c3ccccc23)cc1 [VATALANIB]	–	–	–	–	–	–	–	–	64.47%	69.70%	-2.87	-2.47	67.08%	78.45%	-2.76	-1.79	87.19%	–
CC[C@]1(O)C[C@H]2CN(CCc3c([nH]c4ccccc34)[C@@](C(=O)OC)(c3cc4c(cc3OC)N(C=O)[C@H]3[C@@](O)(C(=O)OC)[C@H](OC(C)=O)[C@]5(CC)C=CCN6CC[C@]43[C@@H]65)C2)C1 [Vincristine sulfate]	–	–	–	–	–	–	–	–	200.35%	196.62%	8.11	7.86	198.49%	109.71%	1.24	-0.20	98.56%	–
CCC1=C[C@@H]2CN(C1)Cc1c([nH]c3ccccc13)[C@@](C(=O)OC)(c1cc3c(cc1OC)N(C)[C@H]1[C@@](O)(C(=O)OC)[C@H](OC(C)=O)[C@]4(CC)C=CCN5CC[C@]31[C@@H]54)C2 [Vinorelbine tartrate]	–	–	–	–	–	–	–	–	231.88%	185.18%	10.66	6.93	208.53%	110.51%	1.35	-1.62	88.42%	–
